“And” between values parts separate entries of the source, which are not always exact repeats. Equal entries are not always repeated. Marks after values point to notes of the source that are not given here.

On the set-up of data set [1]: method as in PMID 17429625. The note with it: mice; cited from earlier work.
In data set [2] the target is P-gp (Homo sapiens, UniProt P08183). Kind of data set: Rho 123 accumulation assay (P-gp inhibition) in U87-TxR cells. The following applies: 30 min; for P-gp activity (Rho 123 intracellular accumulation): 5 µM; for IC50: IC50 of P-gp inhibition, Rho 123 accumulation.
P-gp (Homo sapiens, UniProt P08183), sequence (P08183 whole entry): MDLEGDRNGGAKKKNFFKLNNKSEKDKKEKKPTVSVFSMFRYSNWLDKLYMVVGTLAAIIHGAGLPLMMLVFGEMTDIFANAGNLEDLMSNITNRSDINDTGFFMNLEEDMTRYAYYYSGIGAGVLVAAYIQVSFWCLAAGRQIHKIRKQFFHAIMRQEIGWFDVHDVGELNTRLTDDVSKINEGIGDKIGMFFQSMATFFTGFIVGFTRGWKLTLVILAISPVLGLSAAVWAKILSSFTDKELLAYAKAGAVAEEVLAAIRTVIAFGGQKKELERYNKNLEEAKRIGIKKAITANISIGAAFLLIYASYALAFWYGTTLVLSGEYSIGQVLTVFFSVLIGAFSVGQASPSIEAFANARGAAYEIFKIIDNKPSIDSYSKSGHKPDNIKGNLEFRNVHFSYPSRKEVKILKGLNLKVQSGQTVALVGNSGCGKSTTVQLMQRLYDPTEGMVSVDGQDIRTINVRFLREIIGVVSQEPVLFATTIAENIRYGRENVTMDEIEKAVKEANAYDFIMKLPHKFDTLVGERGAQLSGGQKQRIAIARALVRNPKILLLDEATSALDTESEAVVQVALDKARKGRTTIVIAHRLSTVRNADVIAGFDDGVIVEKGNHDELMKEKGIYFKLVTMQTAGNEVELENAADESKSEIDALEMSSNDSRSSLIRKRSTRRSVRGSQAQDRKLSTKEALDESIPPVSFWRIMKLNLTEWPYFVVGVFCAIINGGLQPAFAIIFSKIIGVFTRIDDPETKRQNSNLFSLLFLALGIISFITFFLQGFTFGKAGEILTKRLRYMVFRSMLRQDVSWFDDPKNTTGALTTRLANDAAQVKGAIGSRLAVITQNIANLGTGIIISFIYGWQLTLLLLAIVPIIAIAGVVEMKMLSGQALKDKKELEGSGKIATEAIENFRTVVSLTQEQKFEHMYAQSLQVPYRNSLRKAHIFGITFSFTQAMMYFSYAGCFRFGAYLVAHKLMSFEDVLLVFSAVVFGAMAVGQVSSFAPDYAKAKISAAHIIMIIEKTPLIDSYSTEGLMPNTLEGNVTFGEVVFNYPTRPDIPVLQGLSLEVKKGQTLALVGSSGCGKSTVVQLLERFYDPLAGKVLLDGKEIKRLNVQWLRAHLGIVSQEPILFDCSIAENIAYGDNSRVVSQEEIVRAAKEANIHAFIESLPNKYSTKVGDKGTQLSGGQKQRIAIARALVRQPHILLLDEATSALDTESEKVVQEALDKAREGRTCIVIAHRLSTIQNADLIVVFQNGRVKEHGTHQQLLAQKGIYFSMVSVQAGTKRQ
Protocol: At the end of the accumulation period, the cells were pelleted by centrifugation, washed with PBS and placed in cold PBS. The samples were kept on ice in a dark setting until the analysis on CyFlow Space Partec flow-cytometer (Sysmex Partec GmbH, Germany). […] A minimum of 10,000 events was assayed for each sample and the obtained results were analyzed using Summit Dako Software (ver. 4.3, Fort Collins, CO, USA).
The subject of data set [3] is P-gp. Kind of data set: Flow-cytometric analysis of P-glycoprotein expression in U87-TxR cells. It counts as cell-based, Human. The following applies: 5 µM, 72 h, flow cytometry. As for the experimental part: To assess the P-glycoprotein expression level in MDR GBM cells, flow-cytometry was employed. U87-TxR cells seeded in adherent 6-well plates were treated with 5 µM Si306, pro-Si306 or dasatinib for 72 h. Then, cells were collected by trypsinization, washed in PBS, and then directly immuno-stained by FITC-conjugated anti-P-gp antibody (BD Biosciences, Winnersh, Berkshire, UK). To discriminate the level of background fluorescence, an isotype control IgG2bκ (Abcam, Cambridge, United Kingdom) was used. The fluorescence of FITC-conjugated anti-P-gp was analyzed on assessed on the fluorescence channel 1 (FL1) of the CyFlow Space Partec flow-cytometer (Sysmex Partec GmbH, Görlitz, Germany). After gating to exclude the cell debris and dead cells, a minimum of 10,000 cells per sample was assayed. Summit Dako Software was used for the analyses of results obtained by flow-cytometry.
For orientation: In flow cytometry, cells or beads pass a laser one at a time.

For data set [4], the system named is MCF-7/Adr. Also on record: method as in PMID 25482933. The following applies: 0.5 μM dasatinib, 72 h; cited from earlier work.
The subject of the next data set is U87-TxR. In words: MTT cell growth inhibition, MDR U87-TxR. It counts as cell-based, Human. The note with it: 72 h, n = 3. As for the experimental part: (§1) Human GBM cell lines U87 and LN-229 were purchased from the American Type Culture Collection, Rockville, MD, USA. U87-TxR cells were selected from U87 cells by continuous exposure to increasing concentrations of PTX [76]. LN-299, U87 and U87-TxR cells were grown in Minimum Essential Medium with 10% fetal bovine serum, 2 mM L-glutamine and 5000 U/mL penicillin, 5 mg/mL streptomycin solution. Cell lines were maintained at 37 °C in a humidified 5% CO2 atmosphere. They were sub-cultured at 72 h intervals using 0.25% trypsin/EDTA and 16,000 cells/cm^2 were seeded into a fresh medium.
(§2) MTT assay was used to assess the viability of U87 and U87-TxR cells (AppliChem GmbH, Taufkirchen, Germany). After reaching the confluence in 25 cm^2 tissue flasks, U87 and U87-TxR cells were trypsinized. Cells were seeded at the optimal density determined in initial experiments: 4000 cell/well into flat-bottomed 96-well tissue culture plates. Following the overnight incubation, cells were treated with Si306, pro-Si306 and dasatinib (1–25 µM) for 72 h. In addition, the combined effects of Si306 and pro-Si306 with PTX were evaluated in MDR GBM cells. To that end, two concentrations of Si306 and pro-Si306 (0.2 μM and 0.5 μM) were combined with increasing concentrations of PTX (0.1–2 μM) in simultaneous treatment. The sensitization of U87-TxR cells to PTX was studied after 72 h. Briefly, MTT was added to each well in a final concentration of 0.2 mg/mL for 4 h to induce the formation of the formazan in cells with intact/viable mitochondria. Then, produced formazan was dissolved in DMSO, and the absorbance was measured at 540 nm on a microplate reader (LKB 5060-006 Micro Plate Reader, Vienna, Austria). IC50 values were calculated by nonlinear regression analysis using GraphPad Prism 6.0 for Windows (GraphPad Software, La Jolla, CA, USA).

Another data set relates to LN-229. In words: MTT cell growth inhibition, LN-229. It counts as cell-based, Human. The following applies: LN-229, MTT, n = 3.
In data set [5] the test system is MCF-7/Adr. The arrangement: method as in PMID 25482933. The note with it: read-out: IC50 cell growth; cited from earlier work.
For the next data set, the system named is U87. In words: MTT cell growth inhibition, U87. It is filed as cell-based, Human. The note with it: 72 h, n = 3. As for the experimental part:
as §1, §2

The next data set relates to U87-TxR cells. Kind of data set: Reversal of paclitaxel resistance, MTT combination treatment. It is filed as cell-based, Human. The note with it: 72 h. As for the experimental part: as §2
Data set [6] deals with Human Serum Albumin (HSA) (Homo sapiens, UniProt P02768). Kind of data set: Binding fluorimetric assay, HSA. It is filed as in vitro ADME. The following applies: 10 µM HSA, fluorescence quenching. As for the experimental part:
(§3) In order to determine the binding affinity for Si306 and pro-Si306 to HSA (human serum albumin) and AGP (alpha-1-acid glycoprotein), the protein fluorescence has been monitored by spectroscopy. The quantitative analysis was performed using black 96 multiwell plates: in each well, a fixed concentration of HSA or AGP (10 µM in phosphate buffer 1 mM) was added with different amounts of the tested compound (0.1 µM to 500 µM). Plates were gently shacked and after 30 min at room temperature for equilibration, spectra were recorded from 300 to 400 nm, after excitation at 295 nm, by using a Perkin Elmer EnVision Multilabel Reader 2014 spectrofluorimeter. Finally, spectra were acquired with EnVision Manager ver.1.13 software (Walthman, MA, USA). The obtained non fluorescence quenching percentages were plotted against drug concentrations and the relative KD values were calculated using GraphPad software (version 6.0).

On the set-up of data set [7]: method as in PMID 28650650. The following applies: pro-Si306 administrated p.o.; cited from earlier work.
The test system of data set [8] is Alpha-1-acid glycoprotein (AGP). Kind of data set: Binding fluorimetric assay, AGP. It counts as in vitro ADME. The note with it: 10 µM AGP, fluorescence quenching. The method, then:
as §3

A further data set deals with BT-138. Kind of data set: Cell viability, BT-138 (Table S1). The note with it: BT-138, 24 h. It is filed as cell-based. As for the experimental part: 1. Cell Growth Inhibition by Dasatinib, Si306 and Pro-Si306
GB cell lines BT138, T98G and A172 were treated with Si306 and pro-Si306 at concentrations ranging from 1 to 100 µM, or with DMSO as a control. Cell viability was evaluated 72 h after treatment for T98G and A172 cell lines and after 24 h for BT-138. In table S1 the IC50 values are reported.
Table S1. Sensitivity of glioblastoma multiforme (GBM) cells to Si306 and pro-Si306 expressed as IC50 […]
Figure S1. Rho 123 accumulation in U87-TxR cells treated with increasing concentrations of TQ (A), Dex-VER (B), Si306 (C) and pro-Si306 (D).
(1 picture or pasted object on this page, not shown here)

On the set-up of data set [9]: method as in PMID 28650650. The following applies: cited from earlier work.
The target of another data set is T1, CYP3A4 (Homo sapiens, UniProt P08684).
T1 construct: Incubations were carried out in a mix containing human liver microsomes (1 mg/mL of protein); from tissue; host or cells: human liver microsomes
T1 sequence (P08684 whole entry): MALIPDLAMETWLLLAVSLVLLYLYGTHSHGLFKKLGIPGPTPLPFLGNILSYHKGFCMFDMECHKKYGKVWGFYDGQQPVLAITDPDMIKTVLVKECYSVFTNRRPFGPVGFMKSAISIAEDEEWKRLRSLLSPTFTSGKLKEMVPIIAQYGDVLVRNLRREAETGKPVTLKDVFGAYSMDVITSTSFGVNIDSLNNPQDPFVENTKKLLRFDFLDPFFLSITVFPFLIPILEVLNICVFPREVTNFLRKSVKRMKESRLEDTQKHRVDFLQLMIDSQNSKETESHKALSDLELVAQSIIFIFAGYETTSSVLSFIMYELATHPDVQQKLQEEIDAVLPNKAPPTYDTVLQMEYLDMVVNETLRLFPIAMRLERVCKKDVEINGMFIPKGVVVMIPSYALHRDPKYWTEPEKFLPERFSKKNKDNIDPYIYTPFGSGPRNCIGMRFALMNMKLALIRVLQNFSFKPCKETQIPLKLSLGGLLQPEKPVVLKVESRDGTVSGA
Kind of data set: CYP3A4 inhibition in human liver microsomes (testosterone 6β-hydroxylation). It counts as in vitro ADME. As for the experimental part: The inhibition of cytochrome P450 3A4 isoform by Si306 and pro-Si306 was measured by determining its activity on the substrate testosterone.
The activity of CYP3A4 was evaluated by measuring the 6β-hydroxylated testosterone formation (CYP3A4-specific reaction). The amount of 6β-hydroxylated metabolite was assessed in the absence and presence of Si306, pro-Si306 and ketoconazole (testosterone concentration of 100 μM in phosphate buffer 0.025 M, pH 7.4). […] Ketoconazole was used as standard selective inhibitor of CYP3A4 isoenzyme. Incubations were carried out in a mix containing human liver microsomes (1 mg/mL of protein) in phosphate buffer 0.025 M, pH 7.4, NADPH (200 μM) previously solubilized in a MgCl2 48 mM solution. The final incubation volume was 0.25 mL. After a 40 min-incubation period at 37 °C, the reaction was stopped by adding 1 mL of acetonitrile in the presence of corticosterone 2 μM as internal standard. The samples were centrifuged for 20 min at 5000 rpm. Concentrations of testosterone and its metabolite 6β-hydroxytestosterone were assessed by the HPLC method with UV detection. Calibration curve for quantitative analysis of 6β-hydroxytestosterone in the samples was obtained using commercial 6β-hydroxytestosterone purchased from Sigma Aldrich. For the statistical analysis, GraphPad InStat 3.0 (GraphPad Software, San Diego, CA, USA) was used.

Human Serum Albumin (HSA), sequence (P02768 25-609): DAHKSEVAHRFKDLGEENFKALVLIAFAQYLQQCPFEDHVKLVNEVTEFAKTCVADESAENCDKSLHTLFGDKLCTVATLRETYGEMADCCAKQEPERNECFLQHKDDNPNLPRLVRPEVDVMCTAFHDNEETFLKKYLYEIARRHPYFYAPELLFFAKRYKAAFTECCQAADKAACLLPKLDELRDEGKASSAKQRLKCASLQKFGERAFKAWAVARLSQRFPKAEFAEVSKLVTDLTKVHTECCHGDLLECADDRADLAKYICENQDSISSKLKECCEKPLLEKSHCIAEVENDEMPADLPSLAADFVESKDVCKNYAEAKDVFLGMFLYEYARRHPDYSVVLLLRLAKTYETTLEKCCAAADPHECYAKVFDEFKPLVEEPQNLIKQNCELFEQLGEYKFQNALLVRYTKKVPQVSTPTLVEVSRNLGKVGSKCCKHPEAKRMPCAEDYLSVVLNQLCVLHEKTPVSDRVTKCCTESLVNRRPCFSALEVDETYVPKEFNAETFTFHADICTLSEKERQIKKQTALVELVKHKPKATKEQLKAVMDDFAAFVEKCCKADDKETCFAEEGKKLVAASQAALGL

In general, IC50 refers to the midpoint of a concentration-inhibition curve. Consider `Cc1nc(Nc2ncc(C(=O)Nc3c(C)cccc3Cl)s2)cc(N2CCN(CCO)CC2)n1` [Dasatinib, dasatinib, reference compound], for which, in data set [1], the oral bioavailability is 14%. For the same compound, the “P-gp activity (Rho 123 intracellular accumulation)” value on P-gp [2] is reported as “did not show a similar activity”. For the same compound, in the data set on P-gp [3], the P-gp expression entry is given as “increased P-gp expression”. In addition, the “reversal of doxorubicin resistance” value in the data set with MCF-7/Adr [4] is reported as 3.35 fold. Further, the IC50 in the data set with U87-TxR is 8.52 ± 0.691 µM; in the data set on U87-TxR (Homo sapiens, U87-TxR), 8.5 µM; with LN-229 (Homo sapiens, LN-229, 72 h), 24.7 µM; in the data set with LN-229 (72 h), 24.7 ± 1.03 µM; in the data set with MCF-7/Adr [5], 40 µM; in the data set with U87, 6.14 ± 0.464 µM. In addition, the IC50 in the data set with U87 (Homo sapiens, U-87 MG) is 6.1 µM.
`CC(=O)O[C@H]1C(=O)[C@@]2(C)[C@H]([C@H](OC(=O)c3ccccc3)[C@]3(O)C[C@H](OC(=O)[C@H](O)[C@@H](NC(=O)c4ccccc4)c4ccccc4)C(C)=C1C3(C)C)[C@]1(OC(C)=O)CO[C@@H]1C[C@@H]2O` [PTX, paclitaxel, reference compound]: the IC50 with U87-TxR cells (Homo sapiens, PTX alone, read-out: IC50 ± S.D. for PXT) was determined as 2.84 ± 0.358 µM.
`COc1cc2c(cc1OC)CN(CCc1ccc(NC(=O)c3cc(OC)c(OC)cc3NC(=O)c3cnc4ccccc4c3)cc1)CC2` [TQ, tariquidar, reference compound] showed an IC50 against P-gp [2] (TQ values in nM (footnote a)) below 1 nM.
One may read the Kd as the concentration at which binding is half-saturated. What is called inhibition is the change of the read-out against control, counted positive when it falls. In the case of `CN1CCN(CCOC(=O)N(c2cccc(Br)c2)c2nc(SCCN3CCOCC3)nc3c2cnn3CC(Cl)c2ccccc2)CC1` (stereo not shown) [pro-Si306], the results for the BMAX in data set [6] and in [8] were 78.00 ± 4.2 and 96.69 ± 1.5, respectively. For the same compound, the dissociation constant Kd in [6] is 21.4 ± 4.5 µM. In addition, the “detection in plasma and brain” value in [7] is on record as “detected neither into the plasma nor in the brain”. In addition, the “P-gp activity (Rho 123 intracellular accumulation)” value at P-gp [2] is “significant suppression of P-gp activity”. The IC50 on P-gp [2] is 3800 nM and 3750 nM; in the data set on BT-138, 30.7 ± 4.75 µM; in the data set on U87-TxR (Homo sapiens, U87-TxR), 3.42 ± 0.359 µM; in the data set with LN-229 (Homo sapiens, LN-229, 72 h) it was 3.07 ± 0.272 µM; in the data set on U87, 3.04 ± 0.343 µM; in the data set on U87 (Homo sapiens, U-87 MG), around 3 µM. Besides, the “Relative Reversal of PTX resistance” value in the data set with U87-TxR cells (0.2 µM of the compound) is recorded as 4.47 ***; in the data set with U87-TxR cells (0.5 µM of the compound), 7.98; in the data set with U87-TxR cells (0.5 µM of the compound, listed as Pro-Si306), 7.98 ***. Also, the Kd at 30 min in [8] (alpha-1-acid glycoprotein (10 µM) in phosphate buffer) is 9.28 ± 0.7 µM. The solubility entry in data set [9] is recorded as “enhanced solubility”. Moreover, the inhibition at 40 min against CYP3A4 (pH 7.4, probe testosterone 100 μM (6β-hydroxylation), at a lower concentration (1–50 μM range)) was -15%. Moreover, the “interaction with CYP3A4” value at CYP3A4 (up to 50 μM) is “do not interact with CYP3A4”.

(Values after article PMC6628362, “A New Strategy for Glioblastoma Treatment: In Vitro and In Vivo Preclinical Characterization of Si306, a Pyrazolo[3,4-d]Pyrimidine Dual Src/P-Glycoprotein Inhibitor” (Cancers, 2019).)
